Results from US5734014A, “Elafin derivative” (Tsumura & Co., priority 1992, dated 1998).

Key:
neutrophilic elastase = target: T1, neutrophilic elastase (Homo sapiens, UniProt P08246); experiment: Test 1: neutrophilic elastase inhibiting activity of non-oxidized and oxidized elafins (AAPV-pNA substrate); type: biochemical
T1 construct: purchased Elastin Products Co., Inc
T1 sequence (P08246 30-267): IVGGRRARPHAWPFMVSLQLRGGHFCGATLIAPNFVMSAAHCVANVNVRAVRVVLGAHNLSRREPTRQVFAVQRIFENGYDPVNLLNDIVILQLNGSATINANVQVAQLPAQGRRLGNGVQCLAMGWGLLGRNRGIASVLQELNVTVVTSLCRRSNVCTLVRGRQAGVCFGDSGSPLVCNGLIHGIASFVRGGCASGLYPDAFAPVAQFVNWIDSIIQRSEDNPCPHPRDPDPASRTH
Description: Natural elafin and the elafin derivatives were oxidized, and variations in their inhibiting activity against neutrophilic elastase were investigated. Oxidative reaction solutions of natural elafin and the elafin derivatives as elastase inhibitors were each prepared by adding 220 μM of H2 O2 and 6 nM of myeloperoxidase (product of Elastin Products Co., Ltd.) to 250 μl of a phosphate buffer (product of TAKARA SHUZO CO., LTD.) which contained 5 μg of the corresponding elafin or elafin derivative, incubating the resulting mixture at 37° C. for 20 minutes and then adding the same volume of a reaction terminating solution (catalase 0.2 mg/ml, 5 mM methionine).
Further, the measurement of elastase activity was conducted as will be described below by using 5-100 μl of the oxidative reaction solution (inhibitor concentration: 10 μg/ml) of natural elafin and the elafin derivatives prepared as described above.

endotoxin-treated mice = experiment: Test 3: survival rate in mouse endotoxin shock model; type: in vivo, ICR male mice; conditions: test substance i.v. four times, survivors/10 mice
Description: Using a mouse endotoxin shock model, effects of the elafin derivative according to this invention on the survival rate were investigated while using natural elafin and urinastatin, which is a urinary trypsin inhibitor having anti-elastase action, as comparative substances. After endotoxin was administered at 6 mg/Kg to the caudal veins of ten 7 weeks-old ICR male mice (CHARLES RIVER JAPAN, INC.) in each group, the mice were administered with one of the test substance. Their survival rate was observed along the passage of time. The test substance was administered to the caudal veins of the mice four times in total, that is, 10 minutes before the administration of endotoxin and 3 hours, 6 hours and 12 hours after its administration.
Employed as the test substances were natural elafin, the elafin derivative according to the present invention in which the methionine at the 25th had been modified to leucine (hereinafter called "L-elafin") and urinastatin ("MIRACLID"™;product of MOCHIDA PHARMACEUTICAL CO., LTD.; hereinafter called "UTI").
Natural elafin and L-elafin were each dissolved in a buffer of 20 mM sodium acetate physiological saline, in which 1% bovine serum albumin had been added, whereas UTI was dissolved in the physiological saline.
As a control, a buffer of 20 mM sodium acetate physiological saline, in which 1% bovine serum albumin had been added, was used.

elastase = experiment: Elastase inhibiting activity of purified recombinant elafin (Referential Examples 1 and 2); type: biochemical; conditions: elafin produced by Escherichia coli, purified by reverse phase HPLC
[1] = 12 hrs after administration of endotoxin (6 mg/Kg, caudal vein)
[2] = 14 hrs after administration of endotoxin (6 mg/Kg, caudal vein)
[3] = 16 hrs after administration of endotoxin (6 mg/Kg, caudal vein)
[4] = 18 hrs after administration of endotoxin (6 mg/Kg, caudal vein)
[5] = 20 hrs after administration of endotoxin (6 mg/Kg, caudal vein)
[6] = 22 hrs after administration of endotoxin (6 mg/Kg, caudal vein)
[7] = 24 hrs after administration of endotoxin (6 mg/Kg, caudal vein)
[8] = 26 hrs after administration of endotoxin (6 mg/Kg, caudal vein)
[9] = 28 hrs after administration of endotoxin (6 mg/Kg, caudal vein)
[10] = 30 hrs after administration of endotoxin (6 mg/Kg, caudal vein)
[11] = 36 hrs after administration of endotoxin (6 mg/Kg, caudal vein)
[12] = 48 hrs after administration of endotoxin (6 mg/Kg, caudal vein)

Substance | stability to oxidation (neutrophilic elastase; general statement of the inventors' findings) | variation in inhibiting activity against neutrophilic elastase by oxidation (neutrophilic elastase; oxidized with 220 μM H2O2 and 6 nM myeloperoxidase, 37° C., 20 minutes, FIG. 3) | Survival rate (endotoxin-treated mice; [1]) | Survival rate (endotoxin-treated mice; [2]) | Survival rate (endotoxin-treated mice; [3]) | Survival rate (endotoxin-treated mice; [4]) | Survival rate (endotoxin-treated mice; [5]) | Survival rate (endotoxin-treated mice; [6]) | Survival rate (endotoxin-treated mice; [7]) | Survival rate (endotoxin-treated mice; [8]) | Survival rate (endotoxin-treated mice; [9]) | Survival rate (endotoxin-treated mice; [10]) | Survival rate (endotoxin-treated mice; [11]) | Survival rate (endotoxin-treated mice; [12]) | elastase inhibiting activity (elastase)
Natural elafin: 57-residue elastase inhibitor isolated from psoriatics (SEQ ID NO:2); produced recombinantly in Escherichia coli or yeast (AQEPVKGPVSTKPGSCPIILIRCAMLNPPNRCLKDTDCPGIKKCCEGSCGMACFVPQ) | unstable to oxidation | significantly decrease | 10/10 | 10/10 | 9/10 | 8/10 | 5/10 | 5/10 | 3/10 | 2/10 | 1/10 | 0/10 | 0/10 | 0/10 | strong inhibiting activity
Reduced elafin: elafin in the completely reduced form, before formation of S--S bonds (AQEPVKGPVSTKPGSCPIILIRCAMLNPPNRCLKDTDCPGIKKCCEGSCGMACFVPQ) | – | – | – | – | – | – | – | – | – | – | – | – | – | – | did not show any inhibiting activity
urinastatin (MIRACLID) [UTI, product of MOCHIDA PHARMACEUTICAL CO., LTD] | – | – | 10/10 | 10/10 | 8/10 | 8/10 | 4/10 | 4/10 | 2/10 | 1/10 | 0/10 | 0/10 | 0/10 | 0/10 | –
